Results from PMC6522510 (Nature Communications, 2019).
pEC50: −log10 of the molar value. “And” between values parts separate entries of the source, which are not always exact repeats. Identical values can stand only once. Like-named read-outs stand apart in the source and are kept apart here.

Assays:
[1] = test system: ML2; experiment: Secondary dose-response HTS, Cell Titer Glo; type: cell-based, human; conditions: for pEC50: Homo sapiens
[2] = test system: U937; experiment: Secondary dose-response HTS, Cell Titer Glo; type: cell-based, human; conditions: secondary high-throughput screen, U937; for pEC50: Homo sapiens, U-937, read-out: average effective concentration, U937
[3] = test system: CMK; experiment: cells; design: species or system AML cell lines (8); Secondary HTS, 10-point dose-response in triplicate, Cell Titer Glo viability, four-parameter fit EC50; conditions: Homo sapiens, CMK, 72 h, read-out: CMK
[4] = test system: MV4-11; experiment: Secondary dose-response HTS, Cell Titer Glo; type: cell-based, human; conditions: for pEC50: Homo sapiens
[5] = test system: CHRF288-11; experiment: cells; design: species or system AML cell lines (8); Secondary HTS, 10-point dose-response in triplicate, Cell Titer Glo viability, four-parameter fit EC50; conditions: 72 h, read-out: CHRF288-11
[6] = test system: CMS; experiment: Secondary dose-response HTS, Cell Titer Glo; type: cell-based, human; conditions: Homo sapiens, HTS, read-out: average effective concentration, CMS
[7] = test system: MOLM-13; experiment: Secondary dose-response HTS, Cell Titer Glo; type: cell-based, human; conditions: for pEC50: Homo sapiens
[8] = test system: M07e; experiment: cells; design: species or system AML cell lines (8); Secondary HTS, 10-point dose-response in triplicate, Cell Titer Glo viability, four-parameter fit EC50; conditions: M-07e, 72 h, read-out: M07e
[9] = test system: U937; experiment: cells; design: species or system AML cell lines (8); Secondary HTS, 10-point dose-response in triplicate, Cell Titer Glo viability, four-parameter fit EC50; conditions: Homo sapiens, U-937, 72 h, read-out: U937
[10] = test system: CMK; experiment: Secondary dose-response HTS, Cell Titer Glo; type: cell-based, human; conditions: CMK; for pEC50: read-out: average effective concentration, CMK
[11] = test system: MOLM-13; experiment: cells; design: species or system AML cell lines (8); Secondary HTS, 10-point dose-response in triplicate, Cell Titer Glo viability, four-parameter fit EC50; conditions: Homo sapiens, MOLM-13, 72 h, read-out: MOLM-13
[12] = test system: CHRF288-11; experiment: Secondary dose-response HTS, Cell Titer Glo; type: cell-based, human; conditions: for pEC50: Homo sapiens, HTS, read-out: average effective concentration, CHRF288-11
[13] = test system: MV4-11; experiment: cells; design: species or system AML cell lines (8); Secondary HTS, 10-point dose-response in triplicate, Cell Titer Glo viability, four-parameter fit EC50; conditions: Homo sapiens, MV4-11, 72 h, read-out: MV4-11
[14] = test system: M07e; experiment: Secondary dose-response HTS, Cell Titer Glo; type: cell-based, human; conditions: secondary high-throughput screen
[15] = test system: CMS; experiment: cells; design: species or system AML cell lines (8); Secondary HTS, 10-point dose-response in triplicate, Cell Titer Glo viability, four-parameter fit EC50; conditions: 72 h, read-out: CMS
[16] = test system: M07e; design: species or system AML cell lines (8); Primary HTS, single concentration about 10 uM, Cell Titer Glo viability; log10 luminescence, per cent inhibition relative to cycloheximide control; conditions: 72 h, relative to cycloheximide control, log10 luminescence, inhibitor, M07e %inh, 10 µM
[17] = test system: CHRF288-11; design: species or system AML cell lines (8); Primary HTS, single concentration about 10 uM, Cell Titer Glo viability; log10 luminescence, per cent inhibition relative to cycloheximide control; conditions: 72 h, relative to cycloheximide control, log10 luminescence, inhibitor, CHRF288-11 %inh, 10 µM
[18] = test system: CMS; design: species or system AML cell lines (8); Primary HTS, single concentration about 10 uM, Cell Titer Glo viability; log10 luminescence, per cent inhibition relative to cycloheximide control; conditions: 72 h, relative to cycloheximide control, log10 luminescence, inhibitor, CMS %inh, 10 µM
[19] = test system: CMK; design: species or system AML cell lines (8); Primary HTS, single concentration about 10 uM, Cell Titer Glo viability; log10 luminescence, per cent inhibition relative to cycloheximide control; conditions: 72 h, relative to cycloheximide control, log10 luminescence, inhibitor, CMK %inh, 10 µM
[20] = test system: ML-2; design: species or system AML cell lines (8); Primary HTS, single concentration about 10 uM, Cell Titer Glo viability; log10 luminescence, per cent inhibition relative to cycloheximide control; conditions: 72 h, relative to cycloheximide control, log10 luminescence, inhibitor, ML-2 %inh, 10 µM
[21] = test system: MV4-11; design: species or system AML cell lines (8); Primary HTS, single concentration about 10 uM, Cell Titer Glo viability; log10 luminescence, per cent inhibition relative to cycloheximide control; conditions: 72 h, relative to cycloheximide control, log10 luminescence, inhibitor, MV4-11 %inh, 10 µM
[22] = secondary high-throughput screen, ML-2, read-out: average effective concentration, ML-2
[23] = secondary high-throughput screen, MV4-11, read-out: average effective concentration, MV4-11
[24] = secondary high-throughput screen, CMS
[25] = secondary high-throughput screen, MOLM-13, read-out: average effective concentration, MOLM-13
[26] = secondary high-throughput screen, CHRF288-11
[27] = secondary high-throughput screen, MV4-11
[28] = secondary high-throughput screen
[29] = secondary high-throughput screen, MOLM-13
[30] = secondary high-throughput screen, ML-2

CN1CC[C@H](c2c(O)cc(O)c3c(=O)cc(-c4ccccc4Cl)oc23)[C@H](O)C1 [ALVOCIDIB]
pEC50 [1, 22]: 7.33 | pEC50 [2]: 7.54 | pEC50 [3]: < 5.00 | pEC50 [4, 23]: 7.30 | pEC50 [5]: < 5.00 | pEC50 [6, 24]: 7.19 | pEC50 [7, 25]: 7.44 | pEC50 [8]: < 5.00

CC(C)c1cc(C(=O)N2Cc3ccc(CN4CCN(C)CC4)cc3C2)c(O)cc1O [AT13387]
pEC50 [1, 22]: 7.64 | pEC50 [9]: < 5.00 | pEC50 [4, 23]: 8.10 | pEC50 ([10]; Homo sapiens): 7.96 | pEC50 [11]: 8.03 | pEC50 [6]: 7.47 | pEC50 [12, 26]: 7.41 | pEC50 [8]: < 5.00

Cn1c(Nc2ccc(C(F)(F)F)cc2)nc2cc(Oc3ccnc(-c4ncc(C(F)(F)F)[nH]4)c3)ccc21 [CHIR-265]
pEC50 [1, 22]: < 5.00 | pEC50 [3]: < 5.00 | pEC50 [13]: < 5.00 | pEC50 [9]: < 5.00 | pEC50 [11]: < 5.00 | pEC50 [6, 24]: 5.00 | pEC50 [12, 26]: 5.17 | pEC50 [8]: < 5.00

Nc1ncn([C@@H]2O[C@H](CO)[C@@H](O)[C@H]2O)c(=O)n1 [Compound 5-AZACYTIDINE]
average effective concentration, M07e ([14]; M07e): Inactive | average effective concentration, MV4-11 [4, 27]: Inactive | average effective concentration, CHRF288-11 [12, 26]: Inactive

CC(C)c1cccc(C(C)C)c1N1C(=O)c2ccc(O)cc2C1=O [Compound 5HPP-33]
average effective concentration, M07e ([14]; M07e): Inactive | average effective concentration, MV4-11 [4, 27]: Inactive | average effective concentration, CMK [10, 28]: Inactive | average effective concentration, CHRF288-11 [12, 26]: Inactive | average effective concentration, MOLM-13 [7, 29]: Inactive

CN[C@@H]1C[C@H]2O[C@@](C)([C@@H]1OC)n1c3ccccc3c3c4c(c5c6ccccc6n2c5c31)C(=O)N[C@H]4O [Compound 7-HYDROXYSTAUROSPORINE]
average effective concentration, M07e ([14]; […]): Inactive

CC(C)(C#N)c1ccc(N2C(=O)OCc3cnc4ccc(-c5cnc6ccccc6c5)cc4c32)cc1 [ETP-46464]
average effective concentration, M07e ([14]; […]): Inactive | average effective concentration, MV4-11 [4, 27]: Inactive | average effective concentration, MOLM-13 [7, 29]: Inactive

CC(C)c1cc(-c2n[nH]c(=O)n2-c2ccc3c(ccn3C)c2)c(O)cc1O [GANETESPIB]
pEC50 [1, 22]: 8.27 | pEC50 [2]: 8.80 | pEC50 [15]: 8.02 | pEC50 [4, 23]: 9.00 | pEC50 ([10]; Homo sapiens): 8.64 | pEC50 [6]: 8.00 | pEC50 [12, 26]: 8.15 | pEC50 [7, 25]: 8.62 | pEC50 [8]: < 5.00

C[C@@H](Oc1cc(-n2cnc3ccc(CN4CCN(C)CC4)cc32)sc1C(N)=O)c1ccccc1C(F)(F)F [GSK461364]
pEC50 [1, 22]: 7.23 | pEC50 [2]: 7.05 | pEC50 [4, 23]: 6.23 | pEC50 [5]: < 5.00 | pEC50 ([10]; Homo sapiens): 6.12 | pEC50 [6]: 5.00 | pEC50 [7, 25]: 6.77 | pEC50 [8]: < 5.00

Cn1cc(C(=O)Cc2ccccc2)cc1/C=C/C(=O)NO [MC 1293]
average effective concentration, U937 [2]: Inactive | pEC50 ([14]; M07e, read-out: average effective concentration, M07e): 6.35 | average effective concentration, MV4-11 [4, 27]: Inactive | pEC50 [10, 28]: 5.06 | average effective concentration, CHRF288-11 [12, 26]: Inactive

OC(c1cc(C(F)(F)F)nc2c(C(F)(F)F)cccc12)C1CCCCN1 (stereo not shown) [MEFLOQUINE]
pEC50 [1, 22]: < 5.00 | pEC50 [2]: < 5.00 | pEC50 [3]: < 5.00 | pEC50 [13]: < 5.00 | pEC50 [11]: < 5.00 | pEC50 [6, 24]: < 5.00 | pEC50 [12, 26]: < 5.00 | pEC50 [8]: < 5.00

CC1(C)CCC(c2ccc(Cl)cc2)=C(CN2CCN(c3ccc(C(=O)NS(=O)(=O)c4ccc(N[C@H](CCN5CCOCC5)CSc5ccccc5)c(S(=O)(=O)C(F)(F)F)c4)cc3)CC2)C1 [NAVITOCLAX]
pEC50 [1, 22]: 5.15 | pEC50 [2]: < 5.00 | M07e %inh [16]: 48.21% and 73.78% | CHRF288-11 %inh [17]: 23.49% and 12.88% | CMS %inh [18]: 98.49% and 71.04% | pEC50 [4, 23]: 7.17 | CMK %inh [19]: 132.4% and 82.78% | ML-2 %inh [20]: 57.75% and 49.42% | MV4-11 %inh [21]: 77.41% and 95.61% | pEC50 ([10]; Homo sapiens): 5.92 | pEC50 [6]: 7.54 | pEC50 [12, 26]: < 5.00 | pEC50 [7, 25]: 5.29 | pEC50 [8]: < 5.00

CCNC(=O)c1cc2c(-c3cc(OCCN4CCCC4)c(Cl)cc3Cl)nc(N)nc2s1 [NVP-BEP800]
average effective concentration, M07e ([14]; […]): Inactive

COc1ccc(-c2cc3c(C)nc(N)nc3n([C@H]3CC[C@H](OCCO)CC3)c2=O)cn1 [PF-04691502]
average effective concentration, M07e ([14]; M07e): Inactive

COc1cc(F)c(F)c(Nc2ccc(I)cc2F)c1NS(=O)(=O)C1(C[C@H](O)CO)CC1 [REFAMETINIB]
pEC50 [1, 22]: 9.00 | pEC50 [13]: < 5.00 | pEC50 [9]: < 5.00 | pEC50 [5]: < 5.00 | pEC50 ([10]; Homo sapiens, secondary high-throughput screen): 5.07 | pEC50 [6, 24]: < 5.00 | pEC50 [7, 25]: 5.92 | pEC50 [8]: < 5.00

Cn1cc(-c2cnn3c(N)c(Br)c([C@@H]4CCCNC4)nc23)cn1 [SCH-900776]
pEC50 ([1]; ML-2, read-out: average effective concentration, ML-2): 7.28 | pEC50 [9]: < 5.00 | pEC50 ([4]; MV4-11, read-out: average effective concentration, MV4-11): 7.08 | pEC50 ([10]; Homo sapiens): 6.89 | pEC50 [6]: < 5.00 | pEC50 [12]: 6.33 | pEC50 ([7]; MOLM-13, read-out: average effective concentration, MOLM-13): 7.29 | pEC50 [8]: < 5.00

CC(=O)Nc1ccc(NC(=S)NC(=O)c2ccc(C(C)(C)C)cc2)cc1 [TENOVIN-1]
average effective concentration, ML-2 [1, 30]: Inactive | average effective concentration, M07e ([14]; M07e): Inactive | average effective concentration, MV4-11 [4, 27]: Inactive | average effective concentration, CMK [10, 28]: Inactive | average effective concentration, CHRF288-11 [12, 26]: Inactive | average effective concentration, MOLM-13 [7, 29]: Inactive

CCC1=C[C@@H]2CN(C1)Cc1c([nH]c3ccccc13)[C@@](C(=O)OC)(c1cc3c(cc1OC)N(C)[C@H]1[C@@](O)(C(=O)OC)[C@H](OC(C)=O)[C@]4(CC)C=CCN5CC[C@]31[C@@H]54)C2 [VINORELBINE]
pEC50 [1, 22]: 7.40 | pEC50 [2]: 7.49 | pEC50 [3]: < 5.00 | pEC50 [4, 23]: 7.49 | pEC50 [6]: 6.62 | pEC50 [12, 26]: 5.68 | pEC50 [7, 25]: 7.54 | pEC50 [8]: < 5.00

CCOc1cc(N2CCC(O)CC2)ccc1Nc1ncc2c(n1)N(C)c1ccccc1C(=O)N2C [XMD 8-92]
average effective concentration, ML-2 [1, 30]: Inactive | average effective concentration, M07e ([14]; M07e): Inactive | average effective concentration, CHRF288-11 [12, 26]: Inactive
